Experiments:
[1] = molecular target: E3 ubiquitin-protein ligase Mdm2 (Homo sapiens, UniProt Q00987); test: Binding affinity to human MDM2 assessed as inhibition constant by competitive binding based fluorescence polarization analysis
A549 = test: Antiproliferative activity against human A549 cells assessed as cell growth inhibition measured after 72 hrs by CCK-8 assay; assay type: functional, cell-based; settings: A549, 72 h
MOLM-14 = test: Cytotoxicity against human MOLM-14 cells assessed as inhibition of cell growth incubated for 72 hrs by alamar blue assay; assay type: functional, cell-based; settings: MOLM-14, 72 h
[2] = molecular target: Protein cereblon/Tyrosine-protein kinase BTK (Homo sapiens, UniProt Q06187+Q96SW2); test: Protac activity at CRBN/BTK in human MOLM-14 cells assessed as induction of BTK degradation incubated for 24 hrs by Western blot analysis; assay type: cell-based
Chain of Protein cereblon/Tyrosine-protein kinase BTK (Q06187 whole entry): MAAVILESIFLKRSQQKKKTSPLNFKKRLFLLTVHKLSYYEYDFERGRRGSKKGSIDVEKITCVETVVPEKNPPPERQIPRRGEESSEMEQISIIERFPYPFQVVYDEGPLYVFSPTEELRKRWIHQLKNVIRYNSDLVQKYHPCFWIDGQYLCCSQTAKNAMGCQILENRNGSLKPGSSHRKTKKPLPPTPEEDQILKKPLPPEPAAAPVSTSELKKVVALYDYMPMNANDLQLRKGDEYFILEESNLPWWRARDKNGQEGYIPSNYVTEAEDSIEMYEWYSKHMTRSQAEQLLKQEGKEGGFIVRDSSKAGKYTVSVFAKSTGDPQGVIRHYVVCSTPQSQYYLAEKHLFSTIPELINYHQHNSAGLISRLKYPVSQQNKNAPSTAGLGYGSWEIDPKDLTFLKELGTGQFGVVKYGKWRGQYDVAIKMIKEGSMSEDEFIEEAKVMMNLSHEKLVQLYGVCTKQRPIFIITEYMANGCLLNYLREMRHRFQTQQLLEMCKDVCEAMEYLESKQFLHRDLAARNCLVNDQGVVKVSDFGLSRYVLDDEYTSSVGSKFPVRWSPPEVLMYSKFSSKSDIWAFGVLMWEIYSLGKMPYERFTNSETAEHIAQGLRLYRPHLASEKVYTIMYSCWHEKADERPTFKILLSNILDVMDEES
Chain of Protein cereblon/Tyrosine-protein kinase BTK (Q96SW2 whole entry): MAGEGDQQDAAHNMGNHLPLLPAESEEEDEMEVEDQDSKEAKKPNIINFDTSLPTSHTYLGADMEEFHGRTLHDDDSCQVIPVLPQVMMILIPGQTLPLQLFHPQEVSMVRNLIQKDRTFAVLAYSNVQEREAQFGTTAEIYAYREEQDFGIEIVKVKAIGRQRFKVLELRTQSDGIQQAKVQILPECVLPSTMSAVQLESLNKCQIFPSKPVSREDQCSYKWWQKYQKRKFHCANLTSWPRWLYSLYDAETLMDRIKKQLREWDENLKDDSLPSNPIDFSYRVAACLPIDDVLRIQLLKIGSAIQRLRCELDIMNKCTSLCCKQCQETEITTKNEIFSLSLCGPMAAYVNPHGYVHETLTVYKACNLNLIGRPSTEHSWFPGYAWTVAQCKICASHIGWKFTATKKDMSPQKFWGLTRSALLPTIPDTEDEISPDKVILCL

Chain of E3 ubiquitin-protein ligase Mdm2 (Q00987 whole entry): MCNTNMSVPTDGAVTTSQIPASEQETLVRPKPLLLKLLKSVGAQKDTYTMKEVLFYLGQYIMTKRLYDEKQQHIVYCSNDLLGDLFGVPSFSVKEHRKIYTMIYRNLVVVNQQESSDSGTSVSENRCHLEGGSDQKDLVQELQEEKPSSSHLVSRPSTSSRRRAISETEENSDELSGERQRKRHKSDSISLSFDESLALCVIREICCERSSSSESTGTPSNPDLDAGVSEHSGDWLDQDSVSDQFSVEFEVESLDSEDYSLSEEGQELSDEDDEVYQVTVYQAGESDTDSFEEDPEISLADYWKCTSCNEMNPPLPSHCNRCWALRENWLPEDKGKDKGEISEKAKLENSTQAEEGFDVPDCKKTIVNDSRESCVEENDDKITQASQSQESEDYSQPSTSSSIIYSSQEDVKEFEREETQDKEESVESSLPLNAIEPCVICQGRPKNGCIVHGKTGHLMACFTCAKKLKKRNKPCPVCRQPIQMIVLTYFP

Row | EC50 [2] [nM] | Structure (SMILES) | Ki [1] [nM] | IC50 (A549) [nM] | IC50 (MOLM-14) [nM]
1 | – | CCOc1cc(C(C)(C)C)ccc1C1=NC(c2ccc(Cl)cc2)C(c2ccc(Cl)cc2)N1C(=O)N1CCN(CC(=O)NCCOCCOCCOCCNC(=O)CN2CCN(C(=O)N3C(c4ccc(C(C)(C)C)cc4OCC)=NC(c4ccc(Cl)cc4)C3c3ccc(Cl)cc3)CC2=O)C(=O)C1 (centres undefined) | 100 | 1000 | –
2 | 6.6 | CN(CCCNC(=O)CNc1cccc2c1C(=O)N(C1CCC(=O)NC1=O)C2=O)C(C)(C)C=C(C#N)C(=O)N1CCC[C@@H](n2nc(-c3ccc(Oc4ccccc4)cc3)c3c(N)ncnc32)C1 (some centres undefined) | – | – | 300

— ChEMBL document CHEMBL5126527, “Emerging targeted protein degradation tools for innovative drug discovery: From classical PROTACs to the novel and beyond” (Eur J Med Chem, 2022)
